The target in test [1] is T1, human FAAH (Homo sapiens, UniProt O00519).
T1 construct: The full length FAAH was subcloned into the mammalian expression vector, pcDEF.neo, using XbaI and EcoRI restriction sites; expressed in transfected cells
T1 sequence (O00519 1-579): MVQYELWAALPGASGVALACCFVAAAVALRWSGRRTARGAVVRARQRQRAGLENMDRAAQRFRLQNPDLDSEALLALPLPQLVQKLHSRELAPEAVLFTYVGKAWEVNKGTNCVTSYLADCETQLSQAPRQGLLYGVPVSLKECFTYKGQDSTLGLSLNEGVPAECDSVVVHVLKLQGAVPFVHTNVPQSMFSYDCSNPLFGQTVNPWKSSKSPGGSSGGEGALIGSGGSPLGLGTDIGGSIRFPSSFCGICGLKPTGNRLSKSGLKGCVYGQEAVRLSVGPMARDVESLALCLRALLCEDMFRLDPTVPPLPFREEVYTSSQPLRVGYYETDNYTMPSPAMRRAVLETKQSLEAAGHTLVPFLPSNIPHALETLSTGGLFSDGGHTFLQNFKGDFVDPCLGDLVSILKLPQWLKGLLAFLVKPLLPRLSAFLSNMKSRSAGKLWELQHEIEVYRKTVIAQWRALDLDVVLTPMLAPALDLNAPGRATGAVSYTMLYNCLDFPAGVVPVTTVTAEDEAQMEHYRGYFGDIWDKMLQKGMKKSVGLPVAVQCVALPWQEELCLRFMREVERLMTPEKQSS
The test is described as follows: FAAH cell lysate assay (human lysate, FAAH_CHO, AAMCA substrate). It is filed as biochemical. The settings on record: lysate of CHO cells expressing human FAAH; read-out: human lysate_IC50. The source says:
(§1) To assist in assay development stable cell lines for human, murine and rat full length FAAH were developed. Human FAAH cDNA (Accession No: NM_001441.1) was purchased from Origene (Rockville, Md.). The full length FAAH was subcloned into the mammalian expression vector, pcDEF.neo, using XbaI and EcoRI restriction sites and used for stable cell line generation.
CHO cells expressing FAAH were used to prepare either crude cell lysate or microsome fractions. To harvest cells, tissue culture media was decanted, the monolayer washed three times with Ca^++Mg^++ free PBS and cells recovered after 15 mm in enzyme free dissociation media (Millipore Corp, Billerica, Mass.). Cells were collected by centrifuging at 2000 rpm for 15 min. and the cell pellet re-suspended with 50 mM HEPES (pH 7.4) containing 1 mM EDTA and the protease inhibitors aprotinin (1 mg/ml) and leupeptin (100 μM). The suspension was sonicated at 4° C. and the cell lysate recovered after centrifuging at 12,000×g (14,600 rpm, SS34 rotor) for 20 min at 4° C. to form a crude pellet of cell debris, nuclei, peroxisomes, lysosomes, and mitochondria; the supernatant or cell lysate was used for FAAH enzyme assay. In some cases, microsomes fractions enriched in FAAH were prepared by centrifuging the cell lysate further at 27,000 rpm (100,000×g) in SW28 rotor for 50 minutes at 4° C. The pellet containing FAAH-enriched microsomes was re-suspend in 50 mM HEPES, (pH 7.4) 1 mM EDTA, and any remaining DNA sheared by passage of material through a 23 gauge needle and aliquots of enzyme were store at −80° C. prior to use.
(American Radiolabeled Chemicals; 1 mCi/ml) with FAAH (Life Sciences (1995), 56, 1999-2005 and Journal of Pharmacology and Experimented Therapeutics (1997), 283, 729-734), Analytical. Biochemistry (2003), 318:270-5. In addition, routine assays were performed monitoring hydrolysis of araehidonyl-7-amino-4-methylcoumarin amide (AAMCA) by following increase in fluorescence upon release of 7-amino 4-methyl coumarin (λEX=355 nm, (λEM=460 nm). Analytical. Biochemistry (2005). 343:143-51
(§2) Assays are performed on either cell lysate or microsome fractions prepared as described or in whole cell format employing either the fluorescent substrate AAMCA (Cayman chemical, Ann Arbor, Mich.) or ^3H-anandamide ([ETHANOLAMINE-1-3H] American Radiolabeled Chemicals; 1 mCi/ml). The cell lysate or microsome assay is performed in black PerkinElmer OptiPlates-384F by adding FAAH_CHO (whole cell (shown as human Whole cell or Human WC), cell lysate (shown as human lysate of human LY) or microsome) in assay buffer (50 mM Phosphate, pH 8.0, 1 mM EDTA, 200 mM KCl, 0.2% glycerol, 0.1% fatty acid free BSA) to each well, followed by either DMSO or compound and allowed to incubate at 22-25° C. for fifteen minutes. AAMCA substrate was used to achieve a final concentration of 1 μM and reaction allowed to proceed at room temperature for 1-3 hours. Fluorescent release as a measure of FAAH activity was monitored by reading the plate in an Envision plate Reader (Ex: 360/40 nM; Em: 460/40 nM). Whole cell assay is conducted with cells harvested after rinsing tissue culture flasks three times with Ca^++Mg^++ free PBS, incubating for 10 min in Enzyme free dissociation media and centrifuging for 5 minutes at 1,000 rpm in table top centrifuge. Cells are resuspended in assay buffer at desired cell number in (4×10^4 cells/assay in 96-well format; 1×10^4 cells/assay in 384-well format) and assayed as described.

The target of test [2] is T1, human FAAH. The test is described as follows: FAAH whole cell assay (human Whole cell, FAAH_CHO, AAMCA substrate). The settings on record: CHO cells expressing human FAAH, whole cell format; read-out: human cell_IC50. Type of test: cell-based.
Text: as §1
Murine (accession number NM_010173) and Rat FAAH (accession number NM_024132) was amplified by reverse transcriptase polymerase chain reaction (RT-PCR) from brain cDNA (BD Biosciences, San Jose, Calif.) using primers 1 and 2 or primers 1 and 3 respectively (see Table). The resulting PCR product was ligated into pCR4 TOPO and DNA sequence confirmed. The full length murine FAAH was subcloned into the mammalian expression vector, pcDEFneo using either EcoRI (murine) or KpnI and EcoRI (rat) restriction sites. Chinese hamster ovary cells (CHO) were transfected following manufacturers protocol (AMAXA). Forty eight hours post transfection, cells were trypsinized and transferred to 96 well plates in Iscove's DMEM media supplemented with 2 mM Glutamine, 10% fetal calf serum, 1 mg/ml geneticin and HT Supplement (0.1 mM sodium hypoxanthine, 0.016 mM thymidine) in order to isolate single clones. Following selection in geneticin, individual clones were selected and FAAH activity was assessed using a whole cell fluorescent anandamide assay, modified from Ramarao et al (2005). Following removal of tissue culture media cells were dislodged following addition of Cellstripper (Mediatech, Inc. Manassas, Va.) and transferred to 96 well black clear bottom assay plate, centrifuged at 1,000 rpm for 3 mins and media removed and replaced with assay buffer (50 mM Tris pH8.0, 1 mM EDTA, 0.1% fatty acid free BSA). The reaction was initiated by addition of fluorescent substrate, AMC Arachidonoyl Amide (Cayman Chemical, Ann Arbor, Mich.) to 1 μM and reaction allowed to proceed for 2 hours at room temperature. Release of fluorescence was monitored in a CytoFluor Multiplate Reader. Cells expressing the highest amount of FAAH activity were selected for study with FAAH inhibitors.
as §2

pIC50: −log10 of the molar value.

Take `CS(=O)(=O)c1ccc(NC(=O)c2nc(-c3ccc(F)cc3)oc2Sc2ccc(Cl)cn2)cc1` [Example A5.1, 5-[(5-chloropyridin-2-yl)sulfanyl]-2-(4-fluorophenyl)-N-[4-(methylsulfonyl)phenyl]-1,3-oxazole-4-carboxamide]: the values for the pIC50 at human FAAH [1] and at human FAAH [2] were 7.21 and 6.41, respectively. Consider `CS(=O)(=O)N1CCC(NC(=O)c2nc(-c3ccc(F)cc3)oc2Sc2ccc(Cl)cn2)CC1` [Example A5.2, 5-[(5-chloropyridin-2-yl)sulfanyl]-2-(4-fluorophenyl)-N-[1-(methylsulfonyl)piperidin-4-yl]-1,3-oxazole-4-carboxamide], for which the pIC50 on human FAAH [1] is 7.24; at human FAAH [2], 6.40. On to `COC(=O)c1ccc(NC(=O)c2nc(-c3ccc(F)cc3)oc2Sc2ccc(Cl)cn2)cc1` [Example A5.3, methyl 4-[({5-[(5-chloropyridin-2-yl)sulfanyl]-2-(4-fluorophenyl)-1,3-oxazol-4-yl}carbonyl)amino]benzoate], for which the pIC50 at human FAAH [1] was 8.00; on human FAAH [2], 7.41. As for `Fc1ccc(-c2nc(COc3ccc4[nH]ncc4c3)c(Sc3ccc(Cl)cn3)o2)cc1` [Example B2.1, 5-({5-[(5-chloropyridin-2-yl)sulfanyl]-2-(4-fluorophenyl)-1,3-oxazol-4-yl}methoxy)-1H-indazole], the pIC50 at human FAAH [1] is 8.52; on human FAAH [2], 7.70.

Turning to `CSc1ccc(OCc2nc(-c3ccc(F)cc3)oc2Sc2ccc(Cl)cn2)cc1` [Example B2.2, 5-chloro-2-{[2-(4-fluorophenyl)-4-{[4-(methylsulfanyl)phenoxy]methyl}-1,3-oxazol-5-yl]sulfanyl}pyridine], the pIC50 on human FAAH [1] is 7.26; at human FAAH [2], 6.29. With `CS(=O)(=O)c1ccc(OCc2nc(-c3ccc(F)cc3)oc2Sc2ccc(Cl)cn2)cc1` [Example B2.3, 5-chloro-2-{[2-(4-fluorophenyl)-4-{[4-(methylsulfonyl)phenoxy]methyl}-1,3-oxazol-5-yl]sulfanyl}pyridine], the pIC50 is 7.27 at human FAAH [1] and 6.27 at human FAAH [2].

With `Fc1ccc(-c2nc(COc3ccc4c(c3)OCO4)c(Sc3ccc(Cl)cn3)o2)cc1` [Example B2.4, 2-({4-[(1,3-benzodioxol-5-yloxy)methyl]-2-(4-fluorophenyl)-1,3-oxazol-5-yl}sulfanyl)-5-chloropyridine], the pIC50 is 7.62 at human FAAH [1] and 6.65 on human FAAH [2].

`COC(=O)c1ccc(OCc2nc(-c3ccc(F)cc3)oc2Sc2ccc(Cl)cn2)cn1` [Example B2.5, methyl 5-({5-[(5-chloropyridin-2-yl)sulfanyl]-2-(4-fluorophenyl)-1,3-oxazol-4-yl}methoxy)pyridine-2-carboxylate]: the pIC50 at human FAAH [1] was 7.70; on human FAAH [2], 6.84. On to `N#Cc1ccc(OCc2nc(-c3ccc(F)cc3)oc2Sc2ccc(Cl)cn2)cc1` [Example B2.6, 4-({5-[(5-chloropyridin-2-yl)sulfanyl]-2-(4-fluorophenyl)-1,3-oxazol-4-yl}methoxy)benzonitrile], for which the pIC50 on human FAAH [1] is 7.33; on human FAAH [2], 6.44. For the compound `CC(O)c1ccc(OCc2nc(-c3ccc(F)cc3)oc2Sc2ccc(Cl)cn2)cc1` (stereo not shown) [Example B2.7, 1-[4-({5-[(5-chloropyridin-2-yl)sulfanyl]-2-(4-fluorophenyl)-1,3-oxazol-4-yl}methoxy)phenyl]ethanol], the values for the pIC50 on human FAAH [1] and at human FAAH [2] were 7.92 and 6.70, respectively.

`OC(c1ccc(OCc2nc(-c3ccc(F)cc3)oc2Sc2ccc(Cl)cn2)cc1)C(F)(F)F` (stereo not shown) [Example B2.8, 1-[4-({5-[(5-chloropyridin-2-yl)sulfanyl]-2-(4-fluorophenyl)-1,3-oxazol-4-yl}methoxy)phenyl]-2,2,2-trifluoroethanol]: the figures for the pIC50 at human FAAH [1] and on human FAAH [2] were 6.89 and 6.29, respectively. The matching figures for `COC(=O)c1ccc(OCc2nc(-c3ccc(F)cc3)oc2Sc2ccc(Cl)cn2)nc1` [Example B2.9, methyl 6-({5-[(5-chloropyridin-2-yl)sulfanyl]-2-(4-fluorophenyl)-1,3-oxazol-4-yl}methoxy)pyridine-3-carboxylate]: 8.70 and 8.00. As for `Clc1ccc(Sc2oc(C3CCOCC3)nc2COc2ccc3[nH]ncc3c2)cc1` [Example B2.17, 5-({5-[(4-chlorophenyl)sulfanyl]-2-(tetrahydro-2H-pyran-4-yl)-1,3-oxazol-4-yl}methoxy)-1H-indazole], at human FAAH [2], the pIC50 was 7.01. With `COC(=O)[C@H]1CC[C@@H](NCc2nc(-c3ccc(F)cc3)oc2Sc2ccc(Cl)cn2)CC1` [Example B5.11, methyl cis-4-[({5-[(5-chloropyridin-2-yl)sulfanyl]-2-(4-fluorophenyl)-1,3-oxazol-4-yl}methyl)amino] cyclohexanecarboxylate], the pIC50 at human FAAH [2] was 7.30. Regarding `O[C@H]1CC[C@H](NCc2nc(C3CCOCC3)oc2Sc2ccc(Cl)cc2)CC1` [Example B5.13, trans-4-[({5-[(4-chlorophenyl)sulfanyl]-2-(tetrahydro-2H-pyran-4-yl)-1,3-oxazol-4-yl}methyl)amino] cyclohexanol], the pIC50 on human FAAH [2] was 5.55. For `COC(=O)[C@H]1CC[C@H](NCc2nc(C3CCOCC3)oc2Sc2ccc(Cl)cc2)CC1` [Example B5.14, methyl trans-4-[({5-[(4-chlorophenyl)sulfanyl]-2-(tetrahydro-2H-pyran-4-yl)-1,3-oxazol-4-yl}methyl)amino] cyclohexanecarboxylate], the pIC50 on human FAAH [2] is 7.57.
